In PMC9085577, “Discovery of a Potent and Orally Active Dual GPBAR1/CysLT1R Modulator for the Treatment of Metabolic Fatty Liver Disease” (Frontiers in Pharmacology, 2022):

Test system: liver transcriptome
Experiment: AmpliSeq liver transcriptome of HFD-F mice
Format: in vivo
Conditions: liver
Excerpt: C57BL/6J male mice were fed a high fat diet (HFD) containing 59 KJ% fat plus 1% cholesterol, w/o sugar (ssniff ® EF R/M acc. D12330 mod. 22,7 ME/kg) and fructose (HFD-F) in drinking water (42 g/L), or normal chow diet for 61 days. Food intake was estimated as the difference of weight between the offered and the remnant amount of food at 3-days intervals. The food was provided as pressed pellets and the residual spillage was not considered. After 7 days, HFD-F mice were randomized to receive HFD-F alone or in combination with compound 2 (30 mg/kg/day) by gavage until the end of the experiment. Doses of each agent were chosen according to previously published data. Mice were housed under controlled temperature (22°C) and photoperiods (12:12-h light/dark cycle), allowed unrestricted access to standard mouse chow and tap water. The experimental protocol was approved by the Animal Care and Use Committee of the University of Perugia and by the Italian Minister of Health and Istituto Superiore di Sanità (Italy) and was in agreement with the European guidelines for use of experimental animals (permission n. 583/2017-PR). The general health of the animals was monitored daily by the Veterinarian in the animal facility. At the day of sacrifice, fed mice were deeply anesthetized with a mixture of tiletamine hypochloride and zolazepam hypochloride/xylazine at a dose of 50/5 mg/kg and sacrificed before 12 a.m.
High-quality RNA was extracted from mice livers, using the Direct-zol™ RNA MiniPrep w/Zymo-Spin™ IIC Columns (Zymo Research, Irvine, CA) according to the manufacturer’s instructions. RNA quality and quantity were assessed with the Qubit® RNA HS Assay Kit and a Qubit 3.0 fluorometer (Invitrogen, Carlsbad, CA) followed by agarose gel electrophoresis. Libraries were generated using the Ion AmpliSeq™ Transcriptome Mouse Gene Expression Core Panel and Chef-Ready Kit (Comprehensive evaluation of AmpliSeq transcriptome, a whole transcriptome RNA sequencing methodology) (Thermo Fisher Scientific, Waltham, MA). Briefly, 10 ng of RNA was reverse transcribed with SuperScript™ Vilo™ cDNA Synthesis Kit (Thermo Fisher Scientific, Waltham, MA) before library preparation on the Ion Chef™ instrument (Thermo Fisher Scientific, Waltham, MA). The resulting cDNA was amplified to prepare barcoded libraries using the Ion Code™ PCR Plate, and the Ion AmpliSeq™ Transcriptome Mouse Gene Expression Core Panel (Thermo Fisher Scientific, Waltham, MA), Chef-Ready Kit, according to the manufacturer’s instructions. Barcoded libraries were combined to a final concentration of 100 p.m., and used to prepare Template-Positive Ion Sphere™ (Thermo Fisher Scientific, Waltham, MA) Particles to load on Ion 540™ Chips, using the Ion 540™ Kit-Chef (Thermo Fisher Scientific, Waltham, MA). Sequencing was performed on an Ion S5™ Sequencer with Torrent Suite™ Software v6 (Thermo Fisher Scientific, Waltham, MA). The analyses were performed with a range of fold <−2 and >+2 and a p value <0.05, using Transcriptome Analysis Console Software (version 4.0.1), certified for AmpliSeq analysis (Thermo-Fisher). The transcriptomic data have been deposited as dataset on Mendeley data repository (reference number linking to the repository: Fiorucci, Stefano; Biagioli, Michele; Marchianò, Silvia; Di Giorgio, Cristina (2021), “Discovery of potent dual GPBAR1/CysLT1R modulator for the treatment of metabolic fatty liver disease,” Mendeley Data, V1, doi: 10.17632/6dnrk9fc72.1).

## O=C(O)c1cccc(-c2ccc(OCc3ccc4ccccc4n3)cc2)c1 [Compound 2, 4'-(quinolin-2-ylmethoxy)-[1,1′-biphenyl]-3-carboxylic acid]
HFD-F + compound 2
  Uhrf1 transcript Avg (log2): 0.79 log2
  Upp2 transcript Avg (log2): 9.06 log2
  Usp2 transcript Avg (log2): 5.61 log2
  Wrn transcript Avg (log2): 3.27 log2
  Zfp101 transcript Avg (log2): 1.28 log2
  Zfp445 transcript Avg (log2): 6.23 log2
HFD-F + compound 2 vs HFD-F
  1810011O10Rik transcript Fold Change: -2.01
  2310001K24Rik transcript Fold Change: 2.31
  2310039H08Rik transcript Fold Change: -2.25
  4833423E24Rik transcript Fold Change: 2.15
  6430573F11Rik transcript Fold Change: -2.15
  AW549542 transcript Fold Change: 2.59
  Abcb1a transcript Fold Change: 2.07
  Acod1 transcript Fold Change: -7.35
  Acot3 transcript Fold Change: 2.07
  Adam8 transcript Fold Change: -2.4
  Adam11 transcript Fold Change: 2.06
  Anxa2 transcript Fold Change: -2.16
  Apcs transcript Fold Change: -2.14
  Arntl transcript Fold Change: -2.68
  Arsg transcript Fold Change: -2.22
  Atp1a3 transcript Fold Change: -2.15
  Aurka transcript Fold Change: -2.11
  Avpr1a transcript Fold Change: -2.31
  Bcat1 transcript Fold Change: -2.27
  C920009B18Rik transcript Fold Change: -2.05
  Cabyr transcript Fold Change: 2.35
  Capn11 transcript Fold Change: 3.56
  Ccl2 transcript Fold Change: –9.45
  Ccl3 transcript Fold Change: –45.68
  Ccl4 transcript Fold Change: -3.76
  Ccl7 transcript Fold Change: -5.24
  Ccl9 transcript Fold Change: -2.83
  Cd9 transcript Fold Change: -2.05
  Cd14 transcript Fold Change: -2.38
  Cd36 transcript Fold Change: -2.5
  Cd63 transcript Fold Change: -2.18
  Cdk1 transcript Fold Change: -2.15
  Cdkl2 transcript Fold Change: -2.13
  Cdkn1a transcript Fold Change: -7.58
  Cdkn3 transcript Fold Change: -2.22
  Ces2b transcript Fold Change: 3.35
  Cetn4 transcript Fold Change: 2.21
  Chka transcript Fold Change: -3.91
  Chrna4 transcript Fold Change: -3.1
  Cidea transcript Fold Change: -4.55
  Cidec transcript Fold Change: -3.63
  Cirbp transcript Fold Change: 2.31
  Ckap2 transcript Fold Change: -2.19
  Clec4e transcript Fold Change: -2.29
  Clec4d transcript Fold Change: -2.99
  Col27a1 transcript Fold Change: 3.11
  Csf3 transcript Fold Change: -6.94
  Cxcl2 transcript Fold Change: –12.23
  Cyp1a2 transcript Fold Change: 4.77
  Cyp2a5 transcript Fold Change: 2.79
  Cyp7a1 transcript Fold Change: 3.98
  Cyp17a1 transcript Fold Change: -2.12
  D17H6S56E-5 transcript Fold Change: -2.1
  Dbp transcript Fold Change: 3.21
  Defb1 transcript Fold Change: -2.44
  Derl2 transcript Fold Change: -2.01
  Dhrs9 transcript Fold Change: -2.42
  Dtx4 transcript Fold Change: -2.1
  Dusp8 transcript Fold Change: -2.11
  Egr1 transcript Fold Change: -4.09
  Ell transcript Fold Change: 2.35
  Elovl3 transcript Fold Change: -2.38
  Elovl5 transcript Fold Change: -2.41
  Ephb2 transcript Fold Change: -2.63
  Epm2aip1 transcript Fold Change: -2.65
  Fam57a transcript Fold Change: 2.55
  Fgf21 transcript Fold Change: -6.9
  Fxyd2 transcript Fold Change: -2.25
  Gdf15 transcript Fold Change: -3.99
  Glipr1 transcript Fold Change: -2.13
  Glipr2 transcript Fold Change: -2.29
  Gm16063 transcript Fold Change: 2.05
  Gm30692 transcript Fold Change: -2.13
  Gm31555 transcript Fold Change: 2.49
